Measured values from ChEMBL document CHEMBL1201862, “PubChem BioAssay data set” (2004).
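Dose response: 5 concentrations. Exposure: 48 h. Format: 96-well plates. Endpoint: linear interpolation; highest concentration if not reached. The concentration for 50% growth inhibition is given as GI50.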 Active and inactive are the calls of the source. No stated cut-off is given here; in the data, active = GI50 up to about 1.1 µM and inactive = higher.

What was measured:
Test in all cases: inhibition of tumour cell growth, NCI panel, 48 h
HCT-15 = tested on: HCT-15
HT-29 = tested on: HT-29
NCI-H226 = tested on: NCI-H226
SNB-19 = tested on: SNB-19
NCI-H460 = tested on: NCI-H460
Malme-3M = tested on: Malme-3M
KM12 = tested on: KM12
MDA-N = tested on: MDA-N
OVCAR-8 = tested on: OVCAR-8
NCI-H23 = tested on: NCI-H23
HOP-92 = tested on: HOP-92
ACHN = tested on: ACHN
UO-31 = tested on: UO-31
HCT-116 = tested on: HCT-116
CCRF-CEM = tested on: CCRF-CEM
M14 = tested on: M14
SN12C = tested on: SN12C
DU-145 = tested on: DU-145
SF-268 = tested on: SF-268
MCF7 = tested on: MCF7

SMILES	GI50 (HCT-15)	GI50 (HT-29)	GI50 (NCI-H226)	GI50 (SNB-19)	GI50 (NCI-H460)	GI50 (Malme-3M)	GI50 (KM12)	GI50 (MDA-N)	GI50 (OVCAR-8)	GI50 (NCI-H23)	GI50 (HOP-92)	GI50 (ACHN)	GI50 (UO-31)	GI50 (HCT-116)	GI50 (CCRF-CEM)	GI50 (M14)	GI50 (SN12C)	GI50 (DU-145)	GI50 (SF-268)	GI50 (MCF7)
O=C(O)C(=Cc1ccc(-c2ccccc2)cc1)C(=O)O	12.2 µM	> 25.8 µM (inactive)	22 µM (inactive)	13.6 µM (inactive)	14.9 µM (inactive)	14.7 µM (inactive)	15.6 µM (inactive)	19.1 µM (inactive)	16.6 µM (inactive)	6.87 µM (inactive)	23.8 µM (inactive)	18.6 µM (inactive)	12.4 µM (inactive)	10.4 µM (inactive)	4.06 µM (inactive)	12.4 µM (inactive)	11.5 µM (inactive)	3.66 µM (inactive)	14.5 µM (inactive)	11.5 µM (inactive)
Oc1ccc(Nc2nc(Cl)c3nc[nH]c3n2)cc1	> 100 µM	> 100 µM (inactive)	> 100 µM (inactive)	> 100 µM (inactive)	> 100 µM (inactive)	> 100 µM (inactive)	> 100 µM (inactive)	> 100 µM (inactive)	> 100 µM (inactive)	> 100 µM (inactive)	14 µM (inactive)	93.1 µM (inactive)	> 100 µM (inactive)	> 100 µM (inactive)	37.9 µM (inactive)	> 100 µM (inactive)	> 100 µM (inactive)	> 100 µM (inactive)	> 100 µM (inactive)	> 100 µM (inactive)
CN1CCN(CN2C(=O)C3C4C=CC(C3C2=O)C2C(=O)N(CN3CCN(C)CC3)C(=O)C42)CC1 (stereo not given)	34 µM	22.5 µM (inactive)	> 87.1 µM (inactive)	> 63.1 µM (inactive)	> 53.8 µM (inactive)	> 55.3 µM (inactive)	56.5 µM (inactive)	> 57.3 µM (inactive)	> 100 µM (inactive)	> 49.8 µM (inactive)	> 100 µM (inactive)	> 64.4 µM (inactive)	> 87.3 µM (inactive)	36.6 µM (inactive)	28.6 µM (inactive)	> 51.3 µM (inactive)	> 58.9 µM (inactive)	17.8 µM (inactive)	> 62.1 µM (inactive)	27.2 µM (inactive)
COc1ccccc1N1C(=O)CS(=O)(=O)C1c1cccc(Oc2ccccc2)c1 (stereo not given)	12.1 µM	21.4 µM (inactive)	14.6 µM (inactive)	18 µM (inactive)	15.2 µM (inactive)	15 µM (inactive)	15.7 µM (inactive)	4.3 µM (inactive)	16.5 µM (inactive)	16.7 µM (inactive)	10.8 µM (inactive)	19 µM (inactive)	19.9 µM (inactive)	13.5 µM (inactive)	25.8 µM (inactive)	16.6 µM (inactive)	17.1 µM (inactive)	23.9 µM (inactive)	15.8 µM (inactive)	6.21 µM (inactive)
Oc1c(C(O)(c2ccccc2)c2ccc3ccccc3c2O)ccc2ccccc12	8.77 µM	17 µM (inactive)	18.8 µM (inactive)	14.2 µM (inactive)	8.91 µM (inactive)	11.8 µM (inactive)	9.38 µM (inactive)	12.2 µM (inactive)	11.3 µM (inactive)	5.12 µM (inactive)	9.1 µM (inactive)	10.5 µM (inactive)	11.2 µM (inactive)	7.76 µM (inactive)	0.597 µM (active)	15.5 µM (inactive)	7.74 µM (inactive)	15.6 µM (inactive)	12.2 µM (inactive)	2.93 µM (inactive)
CN(C)c1ccc(/C=C2\C[C@H]3[C@@H]4CCc5cc(OCCN6CCCC6)ccc5[C@H]4CC[C@]3(C)[C@H]2O)cc1	5.3 µM	3.57 µM (inactive)	18.7 µM (inactive)	18.7 µM (inactive)	8.07 µM (inactive)	11.5 µM (inactive)	5.71 µM (inactive)	14.8 µM (inactive)	6.32 µM (inactive)	15.1 µM (inactive)	6.07 µM (inactive)	18.1 µM (inactive)	5.65 µM (inactive)	2.71 µM (inactive)	2.46 µM (inactive)	4.27 µM (inactive)	16.9 µM (inactive)	13.1 µM (inactive)	21.9 µM (inactive)	7.35 µM (inactive)
Cc1cc(O)c2c(c1)C[C@@H](O)C1=C2C(=O)c2c(O)ccc(OC3CC(O)C(OC4CC(OC5CCC(OC6CC(O)C(OC7CC(OC8CCC(O)C(C)O8)C(O)C(C)O7)C(C)O6)C(C)O5)C(O)C(C)O4)C(C)O3)c2C1=O (stereo not given in full)	0.0684 µM	0.092 µM (active)	0.268 µM (active)	0.177 µM (active)	0.238 µM (active)	0.0516 µM (active)	0.0998 µM (active)	0.155 µM (active)	0.0224 µM (active)	0.0661 µM (active)	0.178 µM (active)	0.0845 µM (active)	0.156 µM (active)	0.0492 µM (active)	0.0531 µM (active)	0.0789 µM (active)	0.0581 µM (active)	0.345 µM (active)	0.0243 µM (active)	0.324 µM (active)
CCOc1ccc(Nc2nc(N)nc(N)c2N)cc1	38.9 µM	17.8 µM (inactive)	42.2 µM (inactive)	25.2 µM (inactive)	29.1 µM (inactive)	12.6 µM (inactive)	23.7 µM (inactive)	3.79 µM (inactive)	45.2 µM (inactive)	26.8 µM (inactive)	50.9 µM (inactive)	38.7 µM (inactive)	11 µM (inactive)	30.7 µM (inactive)	20.2 µM (inactive)	47.2 µM (inactive)	> 10 µM (inactive)	> 100 µM (inactive)	15.6 µM (inactive)	18.8 µM (inactive)
Cc1cccc2c(NCCN(C)C)c3cccc(C(=O)NCCN(C)C)c3nc12	0.14 µM	0.0594 µM (active)	0.728 µM (active)	0.413 µM (active)	< 0.0361 µM (active)	0.508 µM (active)	0.0692 µM (active)	0.265 µM (active)	0.107 µM (active)	0.372 µM (active)	0.218 µM (active)	0.0489 µM (active)	0.326 µM (active)	0.0673 µM (active)	0.156 µM (active)	0.578 µM (active)	0.0603 µM (active)	0.471 µM (active)	0.316 µM (active)	0.0656 µM (active)
